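Cultured in 96-well plates, cells were exposed to test compound for 48 hours across five concentrations. TGI marks complete inhibition of growth.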
Assays:
Test in all cases: growth of human tumour cells (NCI), 48 h
[1] = system: ACHN renal
[2] = system: HCT-116 colon
[3] = system: SK-OV-3 ovarian
[4] = system: SF-268 CNS
[5] = system: MCF7 breast
[6] = system: M14 melanoma
[7] = system: UACC-62 melanoma
[8] = system: MDA-N
[9] = system: MOLT-4 leukemia
[10] = system: A549 NSCLC
[11] = system: HOP-62 NSCLC
[12] = system: HCC-2998 colon
[13] = system: MDA-MB-435
[14] = system: SF-295 CNS
[15] = system: PC-3 prostate
[16] = system: NCI/ADR-RES ovarian
[17] = system: A498 renal
[18] = system: KM12 colon
[19] = system: BT-549 breast
[20] = system: CCRF-CEM leukemia
[21] = system: LOX IMVI melanoma
[22] = system: NCI-H226 lung
[23] = system: HL-60(TB) leukemia
[24] = system: OVCAR-5 ovarian
[25] = system: UACC-257 melanoma
[26] = system: SR leukemia
[27] = system: SF-539 CNS
[28] = system: NCI-H460 lung
[29] = system: CAKI-1 renal
[30] = system: SN12C renal
[31] = system: IGROV1 ovarian
[32] = system: TK-10 renal
[33] = system: DU-145 prostate
[34] = system: EKVX NSCLC
[35] = system: K-562 leukemia
[36] = system: COLO 205 colon
[37] = system: HT29 colon
[38] = system: SK-MEL-28 melanoma
[39] = system: NCI-H23 lung
[40] = system: SNB-75 CNS
[41] = system: RXF 393 renal
[42] = system: SK-MEL-2 melanoma
[43] = system: OVCAR-3 ovarian
[44] = system: OVCAR-8 ovarian
[45] = system: 786-0 renal
[46] = system: RPMI-8226 leukemia
[47] = system: HS 578T breast
[48] = system: MDA-MB-231 breast
[49] = system: HOP-92 NSCLC
[50] = system: SW-620 colon
[51] = system: UO-31 renal
[52] = system: SNB-19 CNS
[53] = system: U251 CNS
[54] = system: HCT-15 colon
[55] = system: SK-MEL-5 melanoma
[56] = system: NCI-H522 lung
[57] = system: OVCAR-4 ovarian
[58] = system: T-47D breast
[59] = system: MALME-3M melanoma

Compound: N#Cc1cc2cc3c4c(c2oc1=O)CCCN4CCC3
- TGI [1]: > 100 µM
- TGI [2]: > 100 µM
- TGI [3]: > 100 µM
- TGI [4]: > 100 µM
- TGI [5]: > 100 µM
- TGI [6]: > 100 µM
- TGI [7]: > 100 µM
- TGI [8]: > 100 µM
- TGI [9]: > 100 µM
- TGI [10]: > 100 µM
- TGI [11]: > 100 µM
- TGI [12]: > 100 µM
- TGI [13]: > 100 µM
- TGI [14]: > 100 µM
- TGI [15]: > 100 µM
- TGI [16]: > 100 µM
- TGI [17]: > 100 µM
- TGI [18]: > 100 µM
- TGI [19]: > 100 µM
- TGI [20]: > 100 µM
- TGI [21]: > 100 µM
- TGI [22]: > 100 µM
- TGI [23]: > 100 µM
- TGI [24]: > 100 µM
- TGI [25]: > 100 µM
- TGI [26]: > 100 µM
- TGI [27]: > 100 µM
- TGI [28]: > 100 µM
- TGI [29]: > 100 µM
- TGI [30]: > 100 µM
- TGI [31]: > 100 µM
- TGI [32]: > 100 µM
- TGI [33]: > 100 µM
- TGI [34]: > 100 µM
- TGI [35]: > 100 µM
- TGI [36]: > 100 µM
- TGI [37]: > 100 µM
- TGI [38]: > 100 µM
- TGI [39]: > 100 µM
- TGI [40]: > 100 µM
- TGI [41]: > 100 µM
- TGI [42]: > 100 µM
- TGI [43]: > 100 µM
- TGI [44]: > 100 µM
- TGI [45]: > 100 µM
- TGI [46]: > 100 µM
- TGI [47]: > 100 µM
- TGI [48]: > 100 µM
- TGI [49]: > 100 µM
- TGI [50]: > 100 µM
- TGI [51]: > 100 µM
- TGI [52]: > 100 µM
- TGI [53]: > 100 µM
- TGI [54]: > 100 µM
- TGI [55]: > 100 µM
- TGI [56]: > 100 µM
- TGI [57]: > 100 µM
- TGI [58]: > 100 µM

Compound: Cc1ccc(S(=O)(=O)n2cc(-c3cnc(N)c(Br)n3)c3ccccc32)cc1
- TGI [1]: > 89.4 µM
- TGI [3]: > 100 µM
- TGI [4]: > 100 µM
- TGI [5]: > 45.7 µM
- TGI [6]: > 55.1 µM
- TGI [7]: > 57.2 µM
- TGI [8]: 0.836 µM
- TGI [9]: 10.7 µM
- TGI [10]: > 100 µM
- TGI [11]: > 100 µM
- TGI [12]: > 100 µM
- TGI [13]: 0.588 µM
- TGI [14]: > 100 µM
- TGI [15]: > 31.1 µM
- TGI [16]: > 25.7 µM
- TGI [17]: > 24.8 µM
- TGI [18]: > 40.1 µM
- TGI [19]: > 100 µM
- TGI [21]: > 100 µM
- TGI [22]: > 100 µM
- TGI [23]: 6.58 µM
- TGI [24]: > 77.1 µM
- TGI [25]: > 100 µM
- TGI [26]: 10.2 µM
- TGI [27]: > 23.3 µM
- TGI [28]: > 100 µM
- TGI [29]: > 100 µM
- TGI [30]: 11.9 µM
- TGI [31]: 5.71 µM
- TGI [32]: > 100 µM
- TGI [33]: 6.68 µM
- TGI [34]: > 100 µM
- TGI [35]: > 100 µM
- TGI [36]: 10 µM
- TGI [37]: 9.57 µM
- TGI [38]: > 57 µM
- TGI [39]: 5.94 µM
- TGI [40]: > 22.5 µM
- TGI [41]: 5.23 µM
- TGI [42]: > 100 µM
- TGI [43]: > 45.7 µM
- TGI [44]: > 100 µM
- TGI [45]: > 23.3 µM
- TGI [46]: 49.6 µM
- TGI [47]: 2.97 µM
- TGI [48]: > 24 µM
- TGI [49]: > 27.5 µM
- TGI [50]: > 100 µM
- TGI [51]: > 100 µM
- TGI [52]: > 46.1 µM
- TGI [53]: > 77.5 µM
- TGI [54]: > 100 µM
- TGI [55]: 41.4 µM
- TGI [57]: > 100 µM
- TGI [58]: > 100 µM

Compound: O=C1Nc2ccccc2NC1C1OC(c2ccccc2)=CC1=O (centres undefined)
- TGI [1]: > 100 µM
- TGI [2]: > 100 µM
- TGI [3]: > 100 µM
- TGI [4]: > 100 µM
- TGI [5]: > 100 µM
- TGI [6]: > 100 µM
- TGI [7]: > 100 µM
- TGI [8]: > 100 µM
- TGI [9]: > 100 µM
- TGI [10]: > 100 µM
- TGI [59]: > 100 µM
- TGI [12]: > 100 µM
- TGI [13]: > 100 µM
- TGI [14]: > 100 µM
- TGI [15]: > 100 µM
- TGI [16]: > 100 µM
- TGI [17]: > 100 µM
- TGI [18]: > 100 µM
- TGI [19]: > 100 µM
- TGI [20]: > 100 µM
- TGI [21]: > 100 µM
- TGI [22]: > 100 µM
- TGI [23]: > 100 µM
- TGI [24]: > 100 µM
- TGI [25]: > 100 µM
- TGI [26]: > 100 µM
- TGI [27]: > 100 µM
- TGI [28]: > 100 µM
- TGI [29]: > 100 µM
- TGI [31]: > 100 µM
- TGI [32]: > 100 µM
- TGI [33]: > 100 µM
- TGI [34]: > 100 µM
- TGI [35]: > 100 µM
- TGI [36]: > 100 µM
- TGI [37]: > 100 µM
- TGI [38]: > 100 µM
- TGI [39]: > 100 µM
- TGI [40]: > 100 µM
- TGI [41]: > 100 µM
- TGI [42]: > 100 µM
- TGI [43]: > 100 µM
- TGI [44]: > 100 µM
- TGI [45]: > 100 µM
- TGI [46]: > 100 µM
- TGI [47]: > 100 µM
- TGI [48]: > 100 µM
- TGI [49]: > 100 µM
- TGI [50]: > 100 µM
- TGI [51]: > 100 µM
- TGI [52]: > 100 µM
- TGI [53]: > 100 µM
- TGI [54]: > 100 µM
- TGI [55]: > 100 µM
- TGI [57]: > 100 µM
- TGI [58]: > 100 µM

Source: PubChem BioAssay (NCI)
